Test results published in ChEMBL document CHEMBL1156812, “Novel synthesis of the hexahydroimidazo[1,5b]isoquinoline scaffold: application to the synthesis of glucocorticoid receptor modulators” (J Med Chem, 2010).

Legend:
[1] = biological target: T1, Androgen receptor (Homo sapiens, UniProt P10275); experiment: Binding affinity to androgen receptor
T1 sequence (P10275 whole entry): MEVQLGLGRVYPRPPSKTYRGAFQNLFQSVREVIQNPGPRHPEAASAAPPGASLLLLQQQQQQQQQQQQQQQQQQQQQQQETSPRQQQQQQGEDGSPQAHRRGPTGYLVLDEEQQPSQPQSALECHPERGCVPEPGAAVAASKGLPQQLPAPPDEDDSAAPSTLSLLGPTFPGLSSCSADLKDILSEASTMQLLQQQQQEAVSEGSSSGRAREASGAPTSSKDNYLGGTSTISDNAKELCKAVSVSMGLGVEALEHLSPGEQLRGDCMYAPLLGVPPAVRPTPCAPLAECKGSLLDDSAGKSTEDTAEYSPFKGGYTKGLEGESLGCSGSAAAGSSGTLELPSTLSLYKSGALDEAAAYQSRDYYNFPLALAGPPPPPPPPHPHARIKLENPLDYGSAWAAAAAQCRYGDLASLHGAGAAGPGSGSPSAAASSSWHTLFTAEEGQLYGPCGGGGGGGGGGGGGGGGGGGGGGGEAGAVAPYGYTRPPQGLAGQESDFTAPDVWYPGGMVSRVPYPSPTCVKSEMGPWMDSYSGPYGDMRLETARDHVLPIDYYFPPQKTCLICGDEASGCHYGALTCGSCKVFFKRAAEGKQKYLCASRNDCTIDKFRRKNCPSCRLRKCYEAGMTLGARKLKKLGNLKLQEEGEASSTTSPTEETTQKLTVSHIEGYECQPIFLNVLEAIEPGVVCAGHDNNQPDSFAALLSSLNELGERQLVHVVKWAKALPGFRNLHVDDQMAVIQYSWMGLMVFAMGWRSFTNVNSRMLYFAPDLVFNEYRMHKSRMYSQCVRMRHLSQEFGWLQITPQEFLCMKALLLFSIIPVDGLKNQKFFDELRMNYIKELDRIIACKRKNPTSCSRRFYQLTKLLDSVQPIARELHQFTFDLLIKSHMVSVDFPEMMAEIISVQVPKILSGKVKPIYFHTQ

[2] = biological target: T2, Glucocorticoid receptor (Homo sapiens, UniProt P04150); experiment: Transactivation of GAL-4 tagged glucocorticoid receptor ligand binding domain expressed in human HeLa cells assessed as NP1 activation by luciferase reporter gene assay; format: cell-based
T2 sequence (P04150 whole entry): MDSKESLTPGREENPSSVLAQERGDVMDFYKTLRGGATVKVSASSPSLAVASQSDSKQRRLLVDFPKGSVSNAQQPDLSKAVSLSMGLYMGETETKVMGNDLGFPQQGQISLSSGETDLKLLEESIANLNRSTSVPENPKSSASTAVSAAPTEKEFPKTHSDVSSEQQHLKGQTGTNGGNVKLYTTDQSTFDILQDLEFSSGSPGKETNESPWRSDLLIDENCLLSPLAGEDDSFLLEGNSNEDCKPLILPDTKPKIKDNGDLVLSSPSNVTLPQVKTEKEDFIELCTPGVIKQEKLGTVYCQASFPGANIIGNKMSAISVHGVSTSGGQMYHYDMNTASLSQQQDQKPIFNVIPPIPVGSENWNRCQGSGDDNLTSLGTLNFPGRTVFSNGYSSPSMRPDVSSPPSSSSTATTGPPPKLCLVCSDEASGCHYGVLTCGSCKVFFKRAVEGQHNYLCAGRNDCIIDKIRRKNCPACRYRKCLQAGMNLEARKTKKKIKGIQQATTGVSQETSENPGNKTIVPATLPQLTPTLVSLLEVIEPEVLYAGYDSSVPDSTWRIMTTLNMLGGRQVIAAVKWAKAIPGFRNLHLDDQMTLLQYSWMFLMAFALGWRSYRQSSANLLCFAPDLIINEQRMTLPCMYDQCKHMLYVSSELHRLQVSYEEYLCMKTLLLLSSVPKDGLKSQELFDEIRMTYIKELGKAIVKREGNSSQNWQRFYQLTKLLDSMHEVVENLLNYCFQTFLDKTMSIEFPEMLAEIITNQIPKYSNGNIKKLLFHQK

[3] = biological target: T2, Glucocorticoid receptor; experiment: Transrepression activity at glucocorticoid receptor expressed in human A549 cells assessed as inhibition of IL-1-beta-induced NF-kappaB dependent E-selection promoter activation after 6 hrs by luciferase reporter gene based ELAM assay; format: cell-based
[4] = biological target: T2, Glucocorticoid receptor; experiment: Displacement of GS-red from human glucocorticoid receptor by fluorescent polarization assay
[5] = biological target: T3, Progesterone receptor (Homo sapiens, UniProt P06401); experiment: Binding affinity to progesterone receptor
T3 sequence (P06401 whole entry): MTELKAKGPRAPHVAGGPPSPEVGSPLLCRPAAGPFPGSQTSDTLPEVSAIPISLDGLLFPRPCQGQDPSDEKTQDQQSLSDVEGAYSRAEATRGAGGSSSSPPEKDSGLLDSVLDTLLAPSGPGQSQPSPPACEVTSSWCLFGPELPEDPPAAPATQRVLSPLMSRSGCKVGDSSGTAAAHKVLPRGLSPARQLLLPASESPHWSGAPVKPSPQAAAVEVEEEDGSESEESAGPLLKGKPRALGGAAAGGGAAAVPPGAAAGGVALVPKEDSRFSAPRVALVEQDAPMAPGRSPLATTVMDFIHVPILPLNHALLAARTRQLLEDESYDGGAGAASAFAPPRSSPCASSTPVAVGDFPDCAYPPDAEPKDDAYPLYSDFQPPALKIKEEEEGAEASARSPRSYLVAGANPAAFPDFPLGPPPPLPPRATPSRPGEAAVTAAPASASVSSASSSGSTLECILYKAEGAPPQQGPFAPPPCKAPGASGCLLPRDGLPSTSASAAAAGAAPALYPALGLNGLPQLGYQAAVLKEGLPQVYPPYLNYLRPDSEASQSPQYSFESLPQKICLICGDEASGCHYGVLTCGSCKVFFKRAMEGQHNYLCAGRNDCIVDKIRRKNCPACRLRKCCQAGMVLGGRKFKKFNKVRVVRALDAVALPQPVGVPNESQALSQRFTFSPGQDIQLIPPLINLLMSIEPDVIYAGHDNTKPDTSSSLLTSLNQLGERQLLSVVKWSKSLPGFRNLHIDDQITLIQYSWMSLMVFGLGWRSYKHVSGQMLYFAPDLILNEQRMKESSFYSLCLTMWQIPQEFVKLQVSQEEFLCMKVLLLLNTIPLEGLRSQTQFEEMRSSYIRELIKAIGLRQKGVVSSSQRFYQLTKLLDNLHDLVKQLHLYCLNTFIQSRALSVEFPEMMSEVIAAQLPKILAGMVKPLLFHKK

[6] = biological target: T2, Glucocorticoid receptor; experiment: Transrepression activity at glucocorticoid receptor expressed in human A549 cells assessed as inhibition of PMA-induced AP1 activity after 6 hrs by luciferase reporter gene assay; format: cell-based
[7] = Metabolic stability in mouse liver microsomes assessed as compound remaining at 3 uM after 10 mins; format: ADME, Microsome; settings: read-out: Stability
[8] = Metabolic stability in human liver microsomes assessed as compound remaining at 3 uM after 10 mins; format: ADME, Microsome; settings: read-out: Stability
[9] = Metabolic stability in rat liver microsomes assessed as compound remaining at 3 uM after 10 mins; format: ADME, Microsome; settings: read-out: Stability

IC50 [1] [nM] | EC50 [2] [nM] | EC50 [3] [nM] | Ki [4] [nM] | Ki [5] [nM] | EC50 [6] [nM] | remaining at 10 min, 3 µM [7] [%] | remaining at 10 min, 3 µM [8] [%] | remaining at 10 min, 3 µM [9] [%] | Structure (SMILES)
> 4000 | 697 | 19 | 2 | 238 | 7.5 | 73 | 56 | 51 | C[C@]12Cn3cnc(-c4ccc(F)cc4)c3C=C1CCC[C@@H]2[C@](C)(O)c1ccc(Cl)cc1
> 4000 | 380 | 30 | 2 | 132 | 29 | 21 | 3 | 2 | Cc1ccsc1[C@@](C)(O)[C@H]1CCCC2=Cc3c(-c4ccc(F)cc4)ncn3C[C@@]21C

Structure (SMILES) | IC50 [1] [nM] | EC50 [2] [nM] | EC50 [3] [nM] | Ki [4] [nM] | Ki [5] [nM] | EC50 [6] [nM] | remaining at 10 min, 3 µM [7] [%] | remaining at 10 min, 3 µM [8] [%] | remaining at 10 min, 3 µM [9] [%]
C=CC[C@@](C)(O)[C@H]1CCCC2=Cc3c(-c4ccc(F)cc4)ncn3C[C@@]21C | > 4000 | > 5000 | 79 | 4.3 | 1810 | 57 | – | – | –
